Assay results: patent US20240246942A1, “KINASE INHIBITORS FOR THE TREATMENT OF NEURODEGENERATIVE DISEASES” (priority 2020, published 2024)

Key:
Assay in all cases: biochemical
[1] = target: T1, panel of 374 wild-type kinases (Homo sapiens, UniProt P04049); details: read-out: % Enzyme Activity (relative to DMSO controls), kinase RAF1
T1 construct: purchased Reaction Biology Corporation

[2] = target: T2, panel of 374 wild-type kinases (Homo sapiens, UniProt P35626); details: read-out: % Enzyme Activity (relative to DMSO controls), GRK3
T2 construct: purchased Reaction Biology Corporation
T2 sequence (P35626 1-688): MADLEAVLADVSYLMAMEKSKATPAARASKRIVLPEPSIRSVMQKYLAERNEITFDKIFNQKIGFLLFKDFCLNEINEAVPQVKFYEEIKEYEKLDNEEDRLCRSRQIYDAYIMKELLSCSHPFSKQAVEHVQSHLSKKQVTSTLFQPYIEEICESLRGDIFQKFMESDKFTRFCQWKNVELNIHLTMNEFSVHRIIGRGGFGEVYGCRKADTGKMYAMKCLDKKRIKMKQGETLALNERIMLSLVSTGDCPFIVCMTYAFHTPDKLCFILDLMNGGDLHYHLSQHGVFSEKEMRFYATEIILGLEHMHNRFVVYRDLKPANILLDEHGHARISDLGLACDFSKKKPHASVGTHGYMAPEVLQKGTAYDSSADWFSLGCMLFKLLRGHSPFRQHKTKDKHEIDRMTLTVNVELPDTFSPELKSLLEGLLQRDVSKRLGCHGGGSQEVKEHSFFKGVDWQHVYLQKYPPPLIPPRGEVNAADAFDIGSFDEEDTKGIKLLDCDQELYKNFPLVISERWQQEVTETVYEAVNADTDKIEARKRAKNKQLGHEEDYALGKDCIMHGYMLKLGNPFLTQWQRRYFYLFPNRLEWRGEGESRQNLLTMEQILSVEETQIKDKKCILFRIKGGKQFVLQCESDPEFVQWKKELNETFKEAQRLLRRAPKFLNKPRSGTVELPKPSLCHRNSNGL

[3] = target: T3, panel of 374 wild-type kinases (Homo sapiens, UniProt Q07912); details: read-out: % Enzyme Activity (relative to DMSO controls), ACK1
T3 construct: purchased Reaction Biology Corporation
T3 sequence (Q07912 whole entry): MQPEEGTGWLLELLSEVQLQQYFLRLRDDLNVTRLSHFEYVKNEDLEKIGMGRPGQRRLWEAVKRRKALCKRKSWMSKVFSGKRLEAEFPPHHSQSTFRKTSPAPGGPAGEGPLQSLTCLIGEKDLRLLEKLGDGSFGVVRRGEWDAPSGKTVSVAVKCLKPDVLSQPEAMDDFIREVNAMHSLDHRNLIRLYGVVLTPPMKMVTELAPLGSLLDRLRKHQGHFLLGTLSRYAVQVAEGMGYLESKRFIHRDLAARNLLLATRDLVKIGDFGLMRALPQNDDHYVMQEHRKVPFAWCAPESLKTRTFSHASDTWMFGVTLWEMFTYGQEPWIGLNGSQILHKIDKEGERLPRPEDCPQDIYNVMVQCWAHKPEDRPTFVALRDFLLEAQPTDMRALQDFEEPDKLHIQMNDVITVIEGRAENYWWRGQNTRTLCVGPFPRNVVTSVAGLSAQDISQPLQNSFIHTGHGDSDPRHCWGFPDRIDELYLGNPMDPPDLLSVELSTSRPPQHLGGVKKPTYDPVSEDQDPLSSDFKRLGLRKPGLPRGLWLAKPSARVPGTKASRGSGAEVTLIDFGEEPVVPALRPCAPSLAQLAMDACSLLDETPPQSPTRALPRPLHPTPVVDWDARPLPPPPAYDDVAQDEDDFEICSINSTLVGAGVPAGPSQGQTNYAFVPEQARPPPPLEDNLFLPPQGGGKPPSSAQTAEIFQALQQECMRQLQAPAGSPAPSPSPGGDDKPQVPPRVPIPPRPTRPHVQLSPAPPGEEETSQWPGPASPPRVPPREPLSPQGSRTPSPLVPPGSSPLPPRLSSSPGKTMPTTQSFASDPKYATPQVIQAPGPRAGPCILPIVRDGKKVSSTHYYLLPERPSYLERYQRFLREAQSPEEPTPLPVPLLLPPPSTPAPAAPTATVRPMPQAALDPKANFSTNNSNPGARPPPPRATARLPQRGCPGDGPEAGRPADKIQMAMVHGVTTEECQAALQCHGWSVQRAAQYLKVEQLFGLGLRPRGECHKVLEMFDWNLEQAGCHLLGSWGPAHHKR

[4] = target: T4, panel of 374 wild-type kinases (Homo sapiens, UniProt Q12851); details: read-out: % Enzyme Activity (relative to DMSO controls), GCK/MAP4K2
T4 construct: purchased Reaction Biology Corporation
T4 sequence (Q12851 1-820): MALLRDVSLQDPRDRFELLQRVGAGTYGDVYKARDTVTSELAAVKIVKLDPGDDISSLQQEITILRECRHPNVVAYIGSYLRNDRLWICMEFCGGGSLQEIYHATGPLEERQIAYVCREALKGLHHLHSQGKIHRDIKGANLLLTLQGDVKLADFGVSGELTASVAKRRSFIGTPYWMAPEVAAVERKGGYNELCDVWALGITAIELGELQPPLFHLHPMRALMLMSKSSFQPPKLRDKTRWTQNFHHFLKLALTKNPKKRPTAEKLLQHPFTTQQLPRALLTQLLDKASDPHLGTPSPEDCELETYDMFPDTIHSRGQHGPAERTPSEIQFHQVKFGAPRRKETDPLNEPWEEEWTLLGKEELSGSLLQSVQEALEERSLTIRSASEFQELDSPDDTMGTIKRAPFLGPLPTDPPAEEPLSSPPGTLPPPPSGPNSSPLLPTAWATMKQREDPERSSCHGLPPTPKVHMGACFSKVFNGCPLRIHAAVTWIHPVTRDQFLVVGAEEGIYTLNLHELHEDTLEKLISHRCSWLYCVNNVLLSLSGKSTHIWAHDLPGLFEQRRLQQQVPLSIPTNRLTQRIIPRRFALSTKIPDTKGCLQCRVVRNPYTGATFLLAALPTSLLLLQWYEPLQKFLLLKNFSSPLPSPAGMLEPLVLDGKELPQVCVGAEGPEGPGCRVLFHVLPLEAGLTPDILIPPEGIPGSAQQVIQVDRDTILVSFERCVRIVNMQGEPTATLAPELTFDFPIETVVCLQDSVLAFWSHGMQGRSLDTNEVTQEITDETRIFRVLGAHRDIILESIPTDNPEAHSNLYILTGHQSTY

[5] = target: T5, panel of 374 wild-type kinases (Homo sapiens, UniProt Q8NG66); details: read-out: % Enzyme Activity (relative to DMSO controls), NEK11
T5 construct: purchased Reaction Biology Corporation
T5 sequence (Q8NG66 1-645): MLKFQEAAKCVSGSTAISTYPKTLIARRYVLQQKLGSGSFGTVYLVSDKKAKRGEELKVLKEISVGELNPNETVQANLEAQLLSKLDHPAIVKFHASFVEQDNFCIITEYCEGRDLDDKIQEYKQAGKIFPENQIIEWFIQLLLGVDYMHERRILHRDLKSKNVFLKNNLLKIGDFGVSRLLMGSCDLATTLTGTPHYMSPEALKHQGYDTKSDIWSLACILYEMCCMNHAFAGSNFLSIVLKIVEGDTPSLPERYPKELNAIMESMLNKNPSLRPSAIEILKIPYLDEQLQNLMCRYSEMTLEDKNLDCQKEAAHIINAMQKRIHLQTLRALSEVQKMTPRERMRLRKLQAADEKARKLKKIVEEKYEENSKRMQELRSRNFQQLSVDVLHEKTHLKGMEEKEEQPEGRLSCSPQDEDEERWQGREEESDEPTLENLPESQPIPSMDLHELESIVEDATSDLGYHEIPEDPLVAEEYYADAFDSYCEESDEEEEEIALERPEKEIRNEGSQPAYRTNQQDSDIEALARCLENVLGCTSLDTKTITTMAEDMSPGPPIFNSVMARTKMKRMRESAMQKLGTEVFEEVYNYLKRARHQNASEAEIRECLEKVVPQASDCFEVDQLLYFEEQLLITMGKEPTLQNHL

[6] = target: T6, panel of 374 wild-type kinases (Homo sapiens, UniProt Q9NYL2); details: read-out: % Enzyme Activity (relative to DMSO controls), kinase ZAK/MLTK
T6 construct: purchased Reaction Biology Corporation
T6 sequence (Q9NYL2 whole entry): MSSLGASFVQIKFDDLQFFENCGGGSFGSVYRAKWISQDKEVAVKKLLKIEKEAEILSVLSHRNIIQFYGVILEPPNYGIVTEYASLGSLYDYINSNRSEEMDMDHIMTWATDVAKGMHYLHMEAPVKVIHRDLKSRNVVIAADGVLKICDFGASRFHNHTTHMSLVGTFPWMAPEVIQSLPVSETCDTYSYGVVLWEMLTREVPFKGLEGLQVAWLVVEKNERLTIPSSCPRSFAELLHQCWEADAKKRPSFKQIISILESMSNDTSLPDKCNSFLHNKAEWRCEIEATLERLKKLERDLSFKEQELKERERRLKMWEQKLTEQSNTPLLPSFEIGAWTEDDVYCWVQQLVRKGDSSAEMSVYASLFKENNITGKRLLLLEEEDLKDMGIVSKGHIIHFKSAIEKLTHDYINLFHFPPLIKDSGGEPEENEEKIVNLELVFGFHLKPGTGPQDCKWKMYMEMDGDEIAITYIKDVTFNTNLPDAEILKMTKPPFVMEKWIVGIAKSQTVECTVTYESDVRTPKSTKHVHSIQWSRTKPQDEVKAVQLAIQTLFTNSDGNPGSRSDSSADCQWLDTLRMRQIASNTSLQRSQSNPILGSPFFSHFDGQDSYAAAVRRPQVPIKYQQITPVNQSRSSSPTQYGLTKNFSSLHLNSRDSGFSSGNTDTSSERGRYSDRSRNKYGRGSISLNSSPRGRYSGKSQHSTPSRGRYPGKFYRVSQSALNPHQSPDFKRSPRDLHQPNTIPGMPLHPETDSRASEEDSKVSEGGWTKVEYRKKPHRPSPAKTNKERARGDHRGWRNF

[7] = target: T7, panel of 374 wild-type kinases (Homo sapiens, UniProt Q9P0L2); details: read-out: % Enzyme Activity (relative to DMSO controls), MARK1
T7 construct: purchased Reaction Biology Corporation
T7 sequence (Q9P0L2 whole entry): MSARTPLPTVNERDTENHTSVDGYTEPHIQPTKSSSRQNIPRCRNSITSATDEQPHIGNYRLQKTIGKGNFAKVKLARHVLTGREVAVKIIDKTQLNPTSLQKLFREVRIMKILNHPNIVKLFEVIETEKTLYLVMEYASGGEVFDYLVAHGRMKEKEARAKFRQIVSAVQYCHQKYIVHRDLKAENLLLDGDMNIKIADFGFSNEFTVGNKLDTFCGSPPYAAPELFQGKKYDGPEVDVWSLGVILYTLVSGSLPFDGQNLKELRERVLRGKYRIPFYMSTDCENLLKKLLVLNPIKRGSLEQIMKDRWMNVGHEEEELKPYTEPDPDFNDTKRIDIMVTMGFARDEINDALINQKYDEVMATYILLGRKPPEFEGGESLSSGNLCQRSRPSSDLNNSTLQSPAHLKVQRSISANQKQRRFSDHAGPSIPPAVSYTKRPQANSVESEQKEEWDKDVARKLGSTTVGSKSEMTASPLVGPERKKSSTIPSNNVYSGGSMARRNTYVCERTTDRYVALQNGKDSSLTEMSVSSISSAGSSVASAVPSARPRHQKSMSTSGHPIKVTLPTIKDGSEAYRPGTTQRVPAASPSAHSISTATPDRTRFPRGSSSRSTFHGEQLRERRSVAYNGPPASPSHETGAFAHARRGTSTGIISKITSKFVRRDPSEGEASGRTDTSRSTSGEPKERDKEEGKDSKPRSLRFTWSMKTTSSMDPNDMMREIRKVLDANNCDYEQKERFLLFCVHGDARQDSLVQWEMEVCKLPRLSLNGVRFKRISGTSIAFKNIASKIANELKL

T1 sequence (P04049 whole entry): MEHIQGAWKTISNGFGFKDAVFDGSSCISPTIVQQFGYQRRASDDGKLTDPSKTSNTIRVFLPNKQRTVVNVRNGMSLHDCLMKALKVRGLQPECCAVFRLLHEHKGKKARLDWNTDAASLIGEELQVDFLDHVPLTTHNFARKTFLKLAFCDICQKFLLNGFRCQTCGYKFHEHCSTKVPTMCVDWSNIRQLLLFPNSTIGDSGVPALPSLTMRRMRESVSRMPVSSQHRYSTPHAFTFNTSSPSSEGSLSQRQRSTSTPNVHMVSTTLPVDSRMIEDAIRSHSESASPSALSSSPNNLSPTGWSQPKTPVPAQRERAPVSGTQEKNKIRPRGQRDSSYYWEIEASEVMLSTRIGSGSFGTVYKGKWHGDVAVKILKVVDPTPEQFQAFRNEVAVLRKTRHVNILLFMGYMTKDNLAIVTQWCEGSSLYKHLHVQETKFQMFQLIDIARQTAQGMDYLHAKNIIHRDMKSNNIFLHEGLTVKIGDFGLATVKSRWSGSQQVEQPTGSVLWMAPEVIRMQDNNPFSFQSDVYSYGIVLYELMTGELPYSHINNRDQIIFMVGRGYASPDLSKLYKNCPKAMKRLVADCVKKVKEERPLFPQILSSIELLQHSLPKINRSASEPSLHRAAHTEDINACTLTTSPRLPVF

SMILES	remaining activity at 5 µM [1] [%]	remaining activity at 5 µM [2] [%]	remaining activity at 5 µM [3] [%]	remaining activity at 5 µM [4] [%]	remaining activity at 5 µM [5] [%]	remaining activity at 5 µM [6] [%]	remaining activity at 5 µM [7] [%]	remaining activity at 10 µM ([1]; 10 uM) [%]	remaining activity at 10 µM ([2]; 10 uM) [%]	remaining activity at 10 µM ([3]; 10 uM) [%]	remaining activity at 10 µM ([4]; 10 uM) [%]	remaining activity at 10 µM ([5]; 10 uM) [%]	remaining activity at 10 µM ([6]; 10 uM) [%]	remaining activity at 10 µM ([7]; 10 uM) [%]
O=C(Nc1cnn(-c2csc(C(=O)NC3COC3)c2)c1)Nc1c(F)cccc1Cl [Compound 25, 4-(4-(3-(2-chloro-6-fluorophenyl)ureido)-1H-pyrazol-1-yl)-N-(oxetan-3-yl)thiophene-2-carboxamide]	92.5	101	94.6	95.3	89.5	90.4	108	–	–	–	–	–	–	–
O=C(Nc1cnn(-c2csc(C(=O)NC3COC3)c2)c1)Nc1ccccc1Cl [Compound 17, 4-(4-(3-(2-chlorophenyl)ureido)-1H-pyrazol-1-yl)-N-(oxetan-3-yl)thiophene-2-carboxamide]	87	102	85.6	105	145	101	96.3	–	–	–	–	–	–	–
Cc1sc(C(=O)NC2COC2)cc1-n1cc(NC(=O)Nc2c(F)cccc2Cl)cn1 [Compound 27, 4-(4-(3-(2-chloro-6-fluorophenyl)ureido)-1H-pyrazol-1-yl)-5-methyl-N-(oxetan-3-yl)thiophene-2-carboxamide]	–	–	–	–	–	–	–	92.6	107	106	90.2	70	89.9	95.3
